The text below walks through data of PubChem BioAssay (NCI).

Each structure is given as a SMILES string. Where “and” joins values, the source holds several entries; their conditions need not be identical. Equal entries are not always repeated.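 In this assay, cells in 96-well plates receive the compound at five concentrations for 48 hours. Endpoints are linearly interpolated between the surrounding concentrations. Here, GI50 denotes the concentration required for 50% inhibition of growth. TGI marks complete inhibition of growth.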 A value given as a limit tells only on which side of the number the result lay.

Assay in all cases: NCI tumour cell line growth inhibition, 48 h
Assay [1] has as its system PC-3 prostate.
For assay [2], the system named is NCI-H460 lung.
Assay [3] has as its system SN12C renal.
In assay [4] the test system is SW-620 colon.
Assay [5] concerns HS 578T breast.
Assay [6] relates to MOLT-4 leukemia.
The test system of assay [7] is NCI/ADR-RES ovarian.
The test system of assay [8] is MALME-3M melanoma.
In assay [9] the test system is SF-295 CNS.
The subject of assay [10] is A549 NSCLC.

Regarding `CCOc1cc2c(=O)oc3c(OC)ccc4ccc(c1OC)c2c43`, the TGI in [1], in assay [2], in assay [3], in [4], in [5] and in [6] was over 100 µM each time. Also, the TGI in assay [7], in [8], in assay [9] and in assay [10] was over 100 µM throughout.
Take `O=C1NC(=O)[C@@H](c2c[nH]c3ccccc23)[C@@H]1c1c[nH]c2ccccc12`: the GI50 in assay [1] is over 25 µM; in [2] it was over 25 µM; in assay [3], over 25 µM; in assay [4], over 25 µM; in assay [5], 24.8 µM; in assay [6] it was over 25 µM. Also, the GI50 was over 25 µM in [7], over 21.8 µM in assay [8], over 25 µM in assay [9] and over 25 µM in assay [10]. Also, the TGI in [1], in assay [2], in assay [3], in assay [4], in assay [5] and in assay [6] was over 25 µM each time. Besides, the TGI in [7], in assay [8], in [9] and in [10] was over 25 µM throughout.
Consider `COc1ccc(C2=N[C@@H](c3ccc(Cl)cc3)[C@@H](c3ccc(Cl)cc3)N2C(=O)N2CCNC(=O)C2)c(OC(C)C)c1`, for which the GI50 in assay [1] was 11.2 µM and 11.1 µM and 12.3 µM; in assay [2], 14.8 µM and 3.04 µM and 2.17 µM; in assay [3] it was 15.6 µM and 14.9 µM and 14.1 µM; in assay [4], 17.1 µM and 18.2 µM and 16.7 µM; in assay [5] it was 15.6 µM and 17.3 µM and 17 µM; in [6], 7.54 µM and 3.5 µM and 2.74 µM. For the same molecule, the GI50 in [7] was 16.9 µM and 16.7 µM and 16.2 µM; in assay [8], 11.2 µM and 2.56 µM and 1.15 µM; in assay [9], 12.6 µM and 12.9 µM and 14.9 µM; in [10], 13.3 µM and 3.9 µM and 3.65 µM. The TGI in assay [1] is 26.7 µM and 24.9 µM and 28 µM; in assay [2], 29.9 µM and 16.3 µM and 14.8 µM; in assay [3], 34 µM and 29.9 µM and 28.7 µM; in assay [4] it was 33.6 µM and 37.4 µM and 34 µM; in assay [5] it was 44 µM and 56 µM and 49.3 µM; in assay [6] it was 28.4 µM and > 36.2 µM and 17.2 µM. In addition, the TGI was 35 µM and 37.8 µM and 37.1 µM in assay [7]; 25.6 µM and 16.4 µM and 17.1 µM in assay [8]; 27.3 µM and 26.8 µM and 30.4 µM in assay [9]; 27.4 µM and 18.4 µM and 17.4 µM in [10].
Turning to `COc1cc(C(=O)O/N=C(\N)Cc2cccc3ccccc23)cc(OC)c1OC`, the GI50 in assay [1] was 6.02 µM; in assay [2], 2.78 µM; in assay [3], 17.4 µM; in assay [4] it was 11.7 µM; in assay [5], 6.64 µM; in assay [6], 4.53 µM. In addition, the GI50 is 7.02 µM in assay [7], 8.4 µM in [8], 3.49 µM in assay [9] and 7.67 µM in assay [10]. Besides, the TGI is 20.6 µM in [1]; 7.81 µM in [2]; 42.3 µM in assay [3]; 27.8 µM in [4]; 41.4 µM in assay [5]; 29.4 µM in assay [6]. Besides, the TGI in assay [7] came out at 59.2 µM; in assay [8], 21.9 µM; in assay [9] it was 13.7 µM; in [10] it was 23.8 µM.
In the case of `COc1ccc2c(c1)C(=O)c1c-2c(N2CCN(C(=O)CNCCN(C)C)CC2)nc2ccccc12`, the GI50 in [1] is 3.48 µM; in assay [2], 1.17 µM; in [3] it was 2.54 µM; in assay [4] it was 1.27 µM; in [5], 2.67 µM; in [6], 1.47 µM. In addition, the GI50 in assay [7] was 4.28 µM; in [8] it was 1.96 µM; in assay [9], 2.48 µM; in assay [10] it was 2.22 µM. Further, the TGI in [1] was found to be 15.1 µM; in assay [2], 2.55 µM; in assay [3] it was 7.56 µM; in [4], 2.53 µM; in assay [5], 9.87 µM; in assay [6], 5.98 µM. Further, the TGI in assay [7] worked out at 19.9 µM; in assay [8] it was 4.94 µM; in assay [9], 5.34 µM; in assay [10] it was 10.1 µM.
Regarding `CCCC(C)c1c(Cl)nc(Cl)nc1Cl` (stereo not given), the TGI in assay [1] is 46 µM; in [2], 45.6 µM; in assay [3], 48 µM; in assay [4], over 100 µM; in assay [5], over 100 µM; in assay [6] it was over 100 µM. The TGI in assay [7] is over 100 µM; in [8] it was 55.6 µM; in assay [9], 37 µM; in assay [10] it was 29.4 µM.
Take `O=C1C(Br)=C(Br)C(=O)c2ccccc21`: the TGI was 31.7 µM in [1]; > 100 µM and 33.9 µM in [2]; 30.2 µM and 17.1 µM in assay [3]; 29.5 µM and 8.64 µM in [4]; over 60.7 µM in [5]; 66.8 µM in assay [7]. Further, the TGI in assay [8] was 31 µM and 16 µM; in [9], > 100 µM and 28.6 µM; in [10], 55.8 µM. The GI50 in assay [2] is 32.7 µM and 10.6 µM; in assay [3], 16.4 µM and 5.09 µM; in assay [4], 16 µM and 2.28 µM; in assay [6], 7.01 µM and 1.34 µM; in [8], 16.8 µM and 6.59 µM; in assay [9], 91.1 µM and 14.6 µM.
For `CC[C@H](C)[C@H](NC(=O)NC(C)(C)C)C(=O)N(C)[C@H](C[C@@H](OC(C)=O)c1nc(C(=O)N[C@@H](Cc2ccccc2)C[C@H](C)C(=O)OC)cs1)C(C)C`, the GI50 in [1] is 0.924 µM; in assay [2] it was 0.699 µM; in assay [3], 1.07 µM; in [4], 0.646 µM; in assay [5], 0.792 µM; in [6] it was 0.853 µM. Further, the GI50 was 1.79 µM in assay [7], over 5.51 µM in [8], 0.485 µM in assay [9] and 1.15 µM in assay [10]. The TGI in [1] is over 25 µM; in [2] it was over 13.7 µM; in assay [3], over 25 µM; in assay [4] it was over 25 µM; in assay [5], over 15.3 µM; in assay [6], over 25 µM. The TGI in [7] was 24.9 µM; in assay [8], over 25 µM; in assay [9] it was 1.83 µM; in assay [10] it was over 25 µM.
